# Assays:
# [1] = stability of water solution; type: physicochemical
# [2] = from water solutions
# [3] = pH of 1 wt % solution in water; type: physicochemical; details: 1 wt % (1%) water solution
# [4] = Stability of Cu-ATP solution, Hunter Lab L*a*b* color readings; type: physicochemical; design: key to color reading "L": L* lightness: 100 = white to 0 = black; key to color reading "a": a*: negative = greener, positive = redder; key to color reading "b": b*: negative = bluer, positive = yellower; details: full light, ambient room temperature
# Excerpt: It should be noted that, where relevant, composition ingredients and the like are provided in weight percentages. Further, where applicable, color measurements were done on a Hunter Lab color meter. This color meter measures color on a scale defined as L*a*b* scale. The term “L” is from 100 to 0, representing white and black colors (lightness and darkness), respectively. A (−) value of “a” indicates a more green color. A (+) value of “a” indicates a more red color. A (−) value of “b” indicates a more blue color. A (+) value of “b” indicates a more yellow color. Various numeric values of “a” and “b” indicate degree of respective colors. Mixed colors are thus indicated by a mixed value of L*a*b* as will be noted in various examples below. The materials used had the following properties. Adenosine triphosphate disodium hydrate (molecular weight 551 Da), glutathione (molecular weight 307 Da), copper gluconate (molecular weight 453 Da, Cu=14%), copper amino acid chelate (copper 12%), fructose-1,6-diphosphate dicalcium (molecular weight 416 Da), zinc gluconate (molecular weight 455 Da, Zn=1 4%), manganese gluconate (molecular weight 445 Da, Mn=12%). The analysis of trace metals quoted in ppm in various examples, as noted below, are within +-10%.
# The solution “C” obtained in Example 2 was stored in a beaker with a plastic film wrapped over it. The solution was stored in full light (fluorescent lamps) under ambient room temperature conditions. The color readings were measured periodically, and any visually observed discolorations, or precipitate formations, if any, were also recorded, as noted below.
molecule,measurement,setting,value
NC(=O)c1cccnc1.O=C1O[C@H]([C@@H](O)CO)C(O)=C1O [Niacinamide ascorbate],stability of water solution,[1],good
same,absorption into skin,[2],rapidly absorbed
same,pH of 1 wt % solution in water,[3],3.7
"Nc1ncnc2c1ncn2[C@@H]1O[C@H](COP(=O)(O)OP(=O)(O)OP(=O)(O)O)[C@@H](O)[C@H]1O [ATP, adenosine triphosphate]",pH of 1 wt % solution in water,[3],2.0
NC(=O)c1cccnc1 [niacinamide],stability of water solution,[1],good
same,pH of 1 wt % solution in water,[3],6.3
O=C1O[C@H]([C@@H](O)CO)C(O)=C1O [ascorbic acid],stability of water solution,[1],poor
same,pH of 1 wt % solution in water,[3],2.6
Copper ATP [Cu-ATP Solution],"color reading ""L""",[4]; 1 Week,51.35
same,"color reading ""a""",[4]; 1 Week,−35.38
same,"color reading ""b""",[4]; 1 Week,−5.16
same,"color reading ""L""",[4]; 4 Weeks,50.54
same,"color reading ""a""",[4]; 4 Weeks,−36.08
same,"color reading ""b""",[4]; 4 Weeks,−5.56
same,"color reading ""L""",[4]; Initial,53.52
same,"color reading ""a""",[4]; Initial,−33.58
same,"color reading ""b""",[4]; Initial,−4.19
O=C(O)[C@H](O)[C@@H](O)[C@H](O)[C@H](O)CO [gluconic acid],pH of 1 wt % solution in water,[3],2.5

# From patent publication US20060039887A1, “Cosmetic or pharmaceutical composition for skin care” (Infinity2 Health Sciences, Inc., priority 2004, published 2006)
